Measurements as given in patent publication US7365069B2, “Pyrimidone derivatives” (Bexel Pharmaceuticals Inc., priority 2002, dated 2008).

Tests used:
IL-6 = IL-6 production in LPS-stimulated human whole blood; assay type: cell-based; conditions: LPS 4 h
Description: This assay determines the effect of test compounds on the production of IL-6 from human whole blood. Compounds are tested for their ability to downregulate the production of IL-6 in activated whole blood. The test compounds are pre-incubated for 15 minutes at 37° C. and then stimulated with Lipopolysaccharide (Salmonella abortus equi, 1 μg/ml) for 4 h at 37° C. in 5% CO2. The levels of Interleukin-6 are estimated using Enzyme linked Immunosorbent assay performed in a 96 well format as per the procedure of the manufacturer (Cayman Chemical, Ann Arbor, USA).

NCI-H460 = test: DTP human tumor cell line one-dose prescreen, NCI-H460; assay type: cell-based; conditions: 48 hours, Alamar Blue, test/control, read-out: Percentage growth Lung NCI-H460
Description: (§1) DTP Human Tumor Cell Line Screen
(§2) Methodology of the In Vitro Cancer Screen
(§3) The current assay utilizes a 384 well plate format and fluorescent staining technologies resulting in greater screening capacity for testing of synthetic samples.
(§4) The cell lines of the cancer-screening panel are grown in RPMI 1640 medium containing 5% fetal bovine serum and 2 mM L-glutamine. For a typical screening experiment, cells are inoculated into 96 well microtiter plates in 100 μL. After cell inoculation, the microtiter plates are incubated at 37° C., 5% CO2, 95% air and 100% relative humidity for 24 h prior to addition of experimental drugs. The cells are plated a densities of 5000 cells/well (MCF7), 1000 cells/well (NC1—H460), and 7500 cells/well (SF-268) to allow for varying doubling time of the cell lines. Each plate contains all three cell lines, a series of dilutions of standard agents, total kill wells and appropriate controls. Plates are incubated under standard conditions for 24 hours prior to addition of experimental compounds or extracts.
(§5) Addition of Experimental Agents (Pure Compounds)
(§6) Experimental compounds are solubilized in dimethyl sulfoxide (DMSO) at 400-times the desired maximum test concentration (maximum final DMSO concentration of 0.25%) and stored frozen. Compounds are then diluted with complete media with 0.1% gentamicin sulfate (5 μl of test sample in 100% DMSO is added to 565 μl of complete medium). 20 μl of this solution is then dispensed into test wells containing 50 μl of cell suspension to yield a test concentration of 1.00E-04M.
(§7) Two standard drugs, meaning that their activities against the cell lines are well documented, are tested against each cell line: NSC 19893 (5-FU) and NSC 123127 (Adriamycin).
(§8) After compound addition, plates are incubated at standard conditions for 48 hours, 10 μl/well Alamar Blue is added and the plates are incubated for an additional 4 hours. Fluorescence is measured using an excitation wavelength of 530 nm and an emission wavelength of 590 nm.
(§9) Calculation of Percent Test Cell Growth/Control (Untreated) Cell Growth (T/C)
(§10) Percent growth is calculated on a plate-by-plate basis for test wells relative to control wells. Percent Growth is expressed as the ratio of fluorescence of the test well to the average fluorescence of the control wells x 100.

MCF-7 = test: DTP human tumor cell line one-dose prescreen, MCF-7; assay type: cell-based; conditions: MCF7, 48 hours, Alamar Blue, test/control, read-out: Percentage growth Breast MCF-7
Description: as §1, §2, §3, §4, §5, §6, §7, §8, §9, §10

SF-268 = test: DTP human tumor cell line one-dose prescreen, SF-268; assay type: cell-based; conditions: 48 hours, Alamar Blue, test/control, read-out: Percentage growth CNS SF-268
Description: as §1, §2, §3, §4, §5, §6, §7, §8, §9, §10

COX-2 = biological target: T1, COX-2 (Homo sapiens, UniProt P35354); test: Human whole blood assay, COX-2 inhibition (PGE2 ELISA after LPS); assay type: cell-based; conditions: LPS 24 h
T1 construct: incubation of human blood with lipopolysaccharide (LPS), which induces COX-2 production in the blood; endogenous in cells; host or cells: fresh human whole blood from volunteers, treated with aspirin and then LPS
T1 sequence (P35354 18-604): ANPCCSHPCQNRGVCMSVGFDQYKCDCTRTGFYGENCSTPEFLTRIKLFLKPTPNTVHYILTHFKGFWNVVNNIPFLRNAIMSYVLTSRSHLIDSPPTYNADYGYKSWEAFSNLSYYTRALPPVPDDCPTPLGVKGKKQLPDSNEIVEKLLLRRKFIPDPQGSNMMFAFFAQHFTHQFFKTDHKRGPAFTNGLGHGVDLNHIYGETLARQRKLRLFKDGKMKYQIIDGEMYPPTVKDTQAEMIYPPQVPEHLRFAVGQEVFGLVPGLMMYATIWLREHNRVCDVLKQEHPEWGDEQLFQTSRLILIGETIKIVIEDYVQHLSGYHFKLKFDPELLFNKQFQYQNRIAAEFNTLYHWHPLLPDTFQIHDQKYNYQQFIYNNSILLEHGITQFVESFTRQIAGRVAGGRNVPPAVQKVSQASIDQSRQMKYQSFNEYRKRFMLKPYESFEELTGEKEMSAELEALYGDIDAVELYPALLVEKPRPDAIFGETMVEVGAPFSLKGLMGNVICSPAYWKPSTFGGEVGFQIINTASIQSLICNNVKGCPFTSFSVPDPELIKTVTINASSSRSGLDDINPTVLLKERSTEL
Description: In Vivo Evaluation of Cyclooxygenase-2 (COX-2) Inhibition Activity
The COX-2 inhibition activities of the compounds illustrated in the examples are determined by the following method.
Human whole blood provides a protein and cell rich milieu appropriate for the study of biochemical efficacy of anti-inflammatory compounds such as selective COX-2 inhibitors. […] This is correlating with the observation that COX-2 inhibitors have no effect on prostaglandin E2 (PGE2) production in normal blood. These inhibitors are active only after incubation of human blood with lipopolysaccharide (LPS), which induces COX-2 production in the blood.
Fresh blood is collected in tubes containing potassium EDTA by vein puncture from make volunteers. The subjects should have no apparent inflammatory conditions and not taken NSAIDs for at least 7 days prior to blood collection. Blood is treated with aspirin in vitro (10 μg/ml, at time zero) to inactivate COX-1, and then with LPS (10 μg/ml) along with test agents or vehicle. The blood is incubated for 24 h at 37° C., after which the tubes are centrifuged, the plasma is separated and stored at −80° C. (J. Pharmacol. Exp. Ther, 271, 1705, 1994; Proc. Natl. Acad. Sci. USA., 96, 7563, 1999). The plasma is assayed for PGE2 using Cayman ELISA kit as per the procedure outlined by the manufacturer (Cayman Chemicals, Ann Arbor, USA).

TNF-α = TNF-α production in LPS-stimulated human whole blood; assay type: cell-based; conditions: 1 μM, LPS 4 h
Description: Tumor Necrosis Factor Alpha (TNF-α)
This assay determines the effect of test compounds on the production of TNF-α in human whole blood. TNF-α assay is carried out as described by Armin hatzelmann and Christian Schudt (J Pharm Exp Ther 297, 261, 2001). Compounds are tested for their ability to inhibit the activity of TNF-α in human whole blood. The test compounds are pre-incubated for 15 minutes at 37° C. and then stimulated with Lipopolysaccharide (Salmonella abortus equi, 1 μg/ml) for 4 h at 37° C. in 5% CO2. The levels of TNF-α are estimated using Enzyme linked Immunosorbent assay performed in a 96 well format as per the procedure of the manufacturer (Cayman Chemical, Ann Arbor, USA).

SMILES	inhibition at 0.25 µM (IL-6; 0.25 μM)	activity at 100 µM (NCI-H460)	activity at 100 µM (MCF-7)	activity at 100 µM (SF-268)	melting point	inhibition at 1 µM (COX-2)	inhibition at 1 µM (IL-6)	inhibition at 1 µM (TNF-α)	inhibition at 100 µM (IL-6; 100 μM)	inhibition at 0.25 µM (COX-2; 0.25 μM)	inhibition at 10 µM (IL-6; 10 μM)
CSc1ccc(-n2c(-c3ccccc3)nc(SC)c(C#N)c2=O)cc1 [Example 3, 5-cyano-2-phenyl-4-(methylthio)-1-[4-(methylthio)phenyl]-6-oxo-1,6-dihydropyrimidine]	11.3%	30%	82%	90%	204 to 205 °C						
CSc1ccc(-c2nc(SC)c(C(=O)O)c(=O)n2-c2ccc(C)cc2)cc1 [Example 8, 5-carboxy-2-[(4-methylthio)phenyl]-4-(methylthio)-1-(4-methylphenyl)-6-oxo-1,6-dihydropyrimidine]		51%	77%	89%	173 to 175 °C	40.1%	69.4%				
CSc1ccc(-c2nc(SC)c(C#N)c(=O)n2-c2ccc(Cl)cc2)cc1 [Example 18, 1-(4-chlorophenyl)-5-cyano-4-(methylthio)-2-[4-(methylthio)phenyl]-6-oxo-1,6-dihydropyrimidine]		98%	89%	86%	203 to 205 °C			35.7%	44.8%		
CCOc1ccc(-n2c(-c3ccc(SC)cc3)nc(SC)c(C#N)c2=O)cc1 [Example 21, 5-cyano-1-(4-ethoxyphenyl)-4-(methylthio)-2-[4-(methylthio)phenyl]-6-oxo-1,6-dihydropyrimidine]		92%	84%	91%	209 to 213 °C		17.3%	46.6%		7.79%	
CSc1nc(-c2cccnc2)n(-c2ccc(F)cc2)c(=O)c1C#N [Example 26, 5-cyano-1-(4-fluorophenyl)-4-(methylthio)-6-oxo-2-pyridin-3-yl-1,6-dihydropyrimidine]		79%	74%	99%	190 to 193 °C			30.6%			
CSc1ccc(-n2c(-c3ccccn3)nc(SC)c(C#N)c2=O)cc1 [Example 30, 5-cyano-4-(methylthio)-1-[4-(methylthio)phenyl]-6-oxo-2-pyridin-2-yl-1,6-dihydropyrimidine]		27%	38%	86%	158 to 161 °C	14.9%					
CCOC(=O)c1c(SC)nc(-c2ccc(SC)cc2)n(-c2ccc(C)cc2)c1=O [Example 41, ethyl 1-(4-methylphenyl)-4-(methylthio)-2-[4-(methylthio)phenyl]-6-oxo-1,6-dihydropyrimidine-5-carboxylate]		86%	85%	89%	153 to 155 °C						21.9%
